Bases are written 5' to 3'; sugars and linkages follow in the same order, as letters with counts (s phosphorothioate, o phosphodiester; PS: all linkages phosphorothioate). C may stand for cytosine or 5-methylcytosine; the collection does not tell. l = locked nucleic acid (LNA); d = 2'-deoxy (DNA)
Molecular target: HIF1A
Assay: HeLa, 100 nM transfected, 24 h, mean of 3
Details: ASO

Row | Sequence | caspase activation (% of PBS control)
1 | TGGCAAGCATCCTGTA (sugars l1 d2 l1 d10 l2, PS) | 196
2 | TGGCAAGCATCCTGTA (sugars l1 d2 l1 d11 l1, PS) | 178
3 | TGGCAAGCATCCTGTA (sugars l1 d2 l2 d6 l5, PS) | 366
4 | TGGCAAGCATCCTGTA (sugars l1 d2 l2 d7 l4, PS) | 435
5 | TGGCAAGCATCCTGTA (sugars l1 d2 l2 d8 l3, PS) | 419
6 | TGGCAAGCATCCTGTA (sugars l1 d2 l2 d9 l2, PS) | 380
7 | TGGCAAGCATCCTGTA (sugars l1 d2 l2 d10 l1, PS) | 367
8 | TGGCAAGCATCCTGTA (sugars l1 d3 l1 d6 l5, PS) | 396
9 | TGGCAAGCATCCTGTA (sugars l1 d3 l1 d7 l4, PS) | 235
10 | TGGCAAGCATCCTGTA (sugars l1 d3 l1 d8 l3, PS) | 172
11 | TGGCAAGCATCCTGTA (sugars l1 d3 l1 d9 l2, PS) | 135
12 | TGGCAAGCATCCTGTA (sugars l1 d3 l1 d10 l1, PS) | 146
13 | TGGCAAGCATCCTGTA (sugars l1 d10 l1 d1 l3, PS) | 348
14 | TGGCAAGCATCCTGTA (sugars l1 d10 l1 d2 l2, PS) | 261
15 | TGGCAAGCATCCTGTA (sugars l1 d10 l1 d3 l1, PS) | 199
16 | TGGCAAGCATCCTGTA (sugars l1 d10 l2 d1 l2, PS) | 444
17 | TGGCAAGCATCCTGTA (sugars l1 d10 l2 d2 l1, PS) | 346
18 | TGGCAAGCATCCTGTA (sugars l1 d10 l3 d1 l1, PS) | 381
19 | TGGCAAGCATCCTGTA (sugars l1 d10 l5, PS) | 480
20 | TGGCAAGCATCCTGTA (sugars l1 d11 l1 d1 l2, PS) | 315
21 | TGGCAAGCATCCTGTA (sugars l1 d11 l1 d2 l1, PS) | 190
22 | TGGCAAGCATCCTGTA (sugars l1 d11 l2 d1 l1, PS) | 231
23 | TGGCAAGCATCCTGTA (sugars l1 d11 l4, PS) | 346
24 | TGGCAAGCATCCTGTA (sugars l1 d12 l1 d1 l1, PS) | 150
25 | TGGCAAGCATCCTGTA (sugars l1 d12 l3, PS) | 217

Row | Sequence | caspase activation (% of PBS control)
26 | TGGCAAGCATCCTGTA (sugars l1 d13 l2, PS) | 170
27 | TGGCAAGCATCCTGTA (sugars l1 d14 l1, PS) | 201
28 | TGGCAAGCATCCTGTA (sugars l2 d1 l1 d7 l5, PS) | 427
29 | TGGCAAGCATCCTGTA (sugars l2 d1 l1 d8 l4, PS) | 393
30 | TGGCAAGCATCCTGTA (sugars l2 d1 l1 d9 l3, PS) | 520
31 | TGGCAAGCATCCTGTA (sugars l2 d1 l1 d10 l2, PS) | 501
32 | TGGCAAGCATCCTGTA (sugars l2 d1 l1 d11 l1, PS) | 378
33 | TGGCAAGCATCCTGTA (sugars l2 d1 l2 d6 l5, PS) | 477
34 | TGGCAAGCATCCTGTA (sugars l2 d1 l2 d7 l4, PS) | 394
35 | TGGCAAGCATCCTGTA (sugars l2 d1 l2 d8 l3, PS) | 407
36 | TGGCAAGCATCCTGTA (sugars l2 d1 l2 d9 l2, PS) | 419
37 | TGGCAAGCATCCTGTA (sugars l2 d1 l2 d10 l1, PS) | 401
38 | TGGCAAGCATCCTGTA (sugars l2 d2 l1 d6 l5, PS) | 432
39 | TGGCAAGCATCCTGTA (sugars l2 d2 l1 d7 l4, PS) | 366
40 | TGGCAAGCATCCTGTA (sugars l2 d2 l1 d8 l3, PS) | 397
41 | TGGCAAGCATCCTGTA (sugars l2 d2 l1 d9 l2, PS) | 391
42 | TGGCAAGCATCCTGTA (sugars l2 d2 l1 d10 l1, PS) | 423
43 | TGGCAAGCATCCTGTA (sugars l2 d9 l1 d1 l3, PS) | 369
44 | TGGCAAGCATCCTGTA (sugars l2 d9 l1 d2 l2, PS) | 424
45 | TGGCAAGCATCCTGTA (sugars l2 d9 l1 d3 l1, PS) | 413
46 | TGGCAAGCATCCTGTA (sugars l2 d9 l2 d1 l2, PS) | 401
47 | TGGCAAGCATCCTGTA (sugars l2 d9 l2 d2 l1, PS) | 422
48 | TGGCAAGCATCCTGTA (sugars l2 d9 l3 d1 l1, PS) | 352
49 | TGGCAAGCATCCTGTA (sugars l2 d9 l5, PS) | 368
50 | TGGCAAGCATCCTGTA (sugars l2 d10 l1 d1 l2, PS) | 376

Row | Sequence | caspase activation (% of PBS control)
51 | TGGCAAGCATCCTGTA (sugars l2 d10 l1 d2 l1, PS) | 377
52 | TGGCAAGCATCCTGTA (sugars l2 d10 l2 d1 l1, PS) | 366
53 | TGGCAAGCATCCTGTA (sugars l2 d10 l4, PS) | 346
54 | TGGCAAGCATCCTGTA (sugars l2 d11 l1 d1 l1, PS) | 369
55 | TGGCAAGCATCCTGTA (sugars l2 d11 l3, PS) | 365
56 | TGGCAAGCATCCTGTA (sugars l2 d12 l2, PS) | 389
57 | TGGCAAGCATCCTGTA (sugars l2 d13 l1, PS) | 489
58 | TGGCAAGCATCCTGTA (sugars l3 d1 l1 d6 l5, PS) | 536
59 | TGGCAAGCATCCTGTA (sugars l3 d1 l1 d7 l4, PS) | 377
60 | TGGCAAGCATCCTGTA (sugars l3 d1 l1 d8 l3, PS) | 413
61 | TGGCAAGCATCCTGTA (sugars l3 d1 l1 d9 l2, PS) | 382
62 | TGGCAAGCATCCTGTA (sugars l3 d1 l1 d10 l1, PS) | 354
63 | TGGCAAGCATCCTGTA (sugars l3 d8 l1 d1 l3, PS) | 477
64 | TGGCAAGCATCCTGTA (sugars l3 d8 l1 d2 l2, PS) | 297
65 | TGGCAAGCATCCTGTA (sugars l3 d8 l1 d3 l1, PS) | 230
66 | TGGCAAGCATCCTGTA (sugars l3 d8 l2 d1 l2, PS) | 414
67 | TGGCAAGCATCCTGTA (sugars l3 d8 l2 d2 l1, PS) | 221
68 | TGGCAAGCATCCTGTA (sugars l3 d8 l3 d1 l1, PS) | 449
69 | TGGCAAGCATCCTGTA (sugars l3 d8 l5, PS) | 476
70 | TGGCAAGCATCCTGTA (sugars l3 d9 l1 d1 l2, PS) | 416
71 | TGGCAAGCATCCTGTA (sugars l3 d9 l1 d2 l1, PS) | 210
72 | TGGCAAGCATCCTGTA (sugars l3 d9 l2 d1 l1, PS) | 634
73 | TGGCAAGCATCCTGTA (sugars l3 d9 l4, PS) | 582
74 | TGGCAAGCATCCTGTA (sugars l3 d10 l1 d1 l1, PS) | 251
75 | TGGCAAGCATCCTGTA (sugars l3 d10 l3, PS) | 273

Row | Sequence | caspase activation (% of PBS control)
76 | TGGCAAGCATCCTGTA (sugars l3 d11 l2, PS) | 314
77 | TGGCAAGCATCCTGTA (sugars l3 d12 l1, PS) | 237
78 | TGGCAAGCATCCTGTA (sugars l4 d7 l1 d1 l3, PS) | 522
79 | TGGCAAGCATCCTGTA (sugars l4 d7 l1 d2 l2, PS) | 323
80 | TGGCAAGCATCCTGTA (sugars l4 d7 l1 d3 l1, PS) | 299
81 | TGGCAAGCATCCTGTA (sugars l4 d7 l2 d1 l2, PS) | 572
82 | TGGCAAGCATCCTGTA (sugars l4 d7 l2 d2 l1, PS) | 528
83 | TGGCAAGCATCCTGTA (sugars l4 d7 l3 d1 l1, PS) | 575
84 | TGGCAAGCATCCTGTA (sugars l4 d7 l5, PS) | 414
85 | TGGCAAGCATCCTGTA (sugars l4 d8 l1 d1 l2, PS) | 385
86 | TGGCAAGCATCCTGTA (sugars l4 d8 l1 d2 l1, PS) | 429
87 | TGGCAAGCATCCTGTA (sugars l4 d8 l2 d1 l1, PS) | 425
88 | TGGCAAGCATCCTGTA (sugars l4 d8 l4, PS) | 349
89 | TGGCAAGCATCCTGTA (sugars l4 d9 l1 d1 l1, PS) | 425
90 | TGGCAAGCATCCTGTA (sugars l4 d9 l3, PS) | 412
91 | TGGCAAGCATCCTGTA (sugars l4 d10 l2, PS) | 396
92 | TGGCAAGCATCCTGTA (sugars l4 d11 l1, PS) | 422
93 | TGGCAAGCATCCTGTA (sugars l5 d6 l1 d1 l3, PS) | 443
94 | TGGCAAGCATCCTGTA (sugars l5 d6 l1 d2 l2, PS) | 399
95 | TGGCAAGCATCCTGTA (sugars l5 d6 l1 d3 l1, PS) | 371
96 | TGGCAAGCATCCTGTA (sugars l5 d6 l2 d1 l2, PS) | 367
97 | TGGCAAGCATCCTGTA (sugars l5 d6 l2 d2 l1, PS) | 344
98 | TGGCAAGCATCCTGTA (sugars l5 d6 l3 d1 l1, PS) | 366
99 | TGGCAAGCATCCTGTA (sugars l5 d6 l5, PS) | 445
100 | TGGCAAGCATCCTGTA (sugars l5 d7 l1 d1 l2, PS) | 390

Reference: the OligoGym collection
